SMILES strings stand for the structures.

The target in the test is T1, human liver GK (Homo sapiens, UniProt P35557).
T1 construct: GST (glutathione S-transferase) (N); made in house; host or cells: E. coli
T1 sequence (P35557 1-466 isoform P35557-2): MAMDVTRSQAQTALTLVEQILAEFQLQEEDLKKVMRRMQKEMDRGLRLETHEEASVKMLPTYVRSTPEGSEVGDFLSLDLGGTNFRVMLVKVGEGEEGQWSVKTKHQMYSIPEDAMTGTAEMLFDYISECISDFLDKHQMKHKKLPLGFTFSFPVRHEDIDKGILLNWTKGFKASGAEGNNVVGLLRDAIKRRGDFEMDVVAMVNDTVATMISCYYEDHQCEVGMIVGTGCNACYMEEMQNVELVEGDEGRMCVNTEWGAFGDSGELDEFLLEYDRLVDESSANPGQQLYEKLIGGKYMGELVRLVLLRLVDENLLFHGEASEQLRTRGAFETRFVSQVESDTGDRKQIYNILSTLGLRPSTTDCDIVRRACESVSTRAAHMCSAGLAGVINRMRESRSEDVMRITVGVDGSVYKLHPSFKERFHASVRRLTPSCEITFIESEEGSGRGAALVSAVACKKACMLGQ
Nature of the test: GK activation test. The class given is biochemical. The settings on record: test compound concentration needed to activate 50% of maximum activation ability; 4 mM 14C-labeled glucose, 2 mM ATP, room temperature, 20 minutes. In a few lines:
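GST-tagged human liver GK from E. coli (0.24 μg/well) with 4 mM 14C-glucose, 2 mM ATP in Hepes-KOH pH 7.1, KCl, MgCl2, DTT, 1% DMSO, 20 min room temperature. Labeled glucose 6-phosphate captured on anion resin, eluted and counted. EC50 = concentration giving half of maximal activation.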
For `O=C1CC[C@H](/C=C(/c2ccc(C3CC3)c(=O)[nH]2)c2ccc(Cl)cc2F)N1` [Example 4-266, 6-{(E)-1-(4-Chloro-2-fluorophenyl)-2-[(2R)-5-oxopyrrolidin-2-yl]ethenyl}-3-cyclopropylpyridin-2(1H)-one], the EC50 lay in the range of 10 to 500 nM. The result for `Cc1cc(C(C[C@H]2CCC(=O)N2)c2ccc(C3CC3)c(=O)[nH]2)ccc1C(F)F` (single isomer, unassigned) [Example 4-231] reads 10 to 500 nM; that for `CN(C)c1ccc(/C(=C/[C@H]2CCC(=O)N2)c2ccc(C(C)(C)C)cc2)[nH]c1=O` [Example 4-174, 6-{(E)-1-(4-tert-Butylphenyl)-2-[(2R)-5-oxopyrrolidin-2-yl]ethenyl}-3-(dimethylamino)pyridin-2(1H)-one], 10 to 500 nM. With `O=C1CC[C@H](/C=C(\c2ccc(S(=O)(=O)C3CCCC3)cc2)c2ccc(Cl)c(=O)[nH]2)N1` [Example 4-60, 3-Chloro-6-{(E)-1-[4-(cyclopentylsulfonyl)phenyl]-2-[(2R)-5-oxopyrrolidin-2-yl]ethenyl}pyridin-2(1H)-one] the figure was 10 to 500 nM; with `Cc1cc(C(C[C@H]2CCC(=O)N2)c2ccc(C3CC3)c(=O)[nH]2)ccc1Cl` (single isomer, unassigned) [Example 4-213], 500 to 3000 nM; with `O=C1CC[C@H](/C=C(\c2ccc(S(=O)(=O)C3CC3)c(Cl)c2)c2ccc(Cl)c(=O)[nH]2)N1` [Example 4-59, 3-Chloro-6-{(E)-1-[3-chloro-4-(cyclopropylsulfonyl)phenyl]-2-[(2R)-5-oxopyrrolidin-2-yl]ethenyl}pyridin-2(1H)-one], 10 to 500 nM. With `O=C1CC[C@H](/C=C(\c2ccc(F)c(C(F)(F)F)c2)c2ccc(C3CC3)c(=O)[nH]2)N1` [Example 4-117, 3-Cyclopropyl-6-{(E)-1-[4-fluoro-3-(trifluoromethyl)phenyl]-2-[(2R)-5-oxopyrrolidin-2-yl]ethenyl}pyridin-2(1H)-one] the figure was 500 to 3000 nM; with `O=C1CC[C@H](/C=C(\c2ccc(C(F)(F)F)cc2)c2ccc(C3CC3)c(=O)[nH]2)N1` [Example 4-99, 3-Cyclopropyl-6-{(E)-2-[(2R)-5-oxopyrrolidin-2-yl]-1-[4-(trifluoromethyl)phenyl]ethenyl}pyridin-2(1H)-one], 10 to 500 nM.

In turn, `CN1CCN(C/C=C(\c2ccc(C(C)(C)C)cc2)c2ccc(Cl)c(=O)[nH]2)C1=O` [Example 6-16, 6-[(1E)-1-(4-tert-Butylphenyl)-3-(3-methyl-2-oxoimidazolidin-1-yl)prop-1-en-1-yl]-3-chloropyridin-2(1H)-one] registered an EC50 of 10 to 500 nM.

Turning to `CCCc1ccc(C(C[C@H]2CCC(=O)N2)c2ccc(C(F)(F)F)cc2)[nH]c1=O` (single isomer, unassigned) [Example 4-243], the EC50 lay in the range of 3000 to 10000 nM. The result for `CC(C)c1ccc(C(C[C@H]2CCC(=O)N2)c2ccc(Cl)c(=O)[nH]2)cc1Cl` (single isomer, unassigned) [Example 4-86] reads 10 to 500 nM; that for `O=C1CC[C@H](CC(c2ccc(S(=O)(=O)C3CC3)c(Cl)c2)c2ccc(C3CC3)c(=O)[nH]2)N1` (single isomer, unassigned) [Example 4-342], 10 to 500 nM. The result for `O=C1CC[C@H](CC(c2ccc(C(F)F)c(Cl)c2)c2ccc(C3CC3)c(=O)[nH]2)N1` (single isomer, unassigned) [Example 4-226] reads 3000 to 10000 nM; that for `O=c1[nH]c(C(Oc2ccc(F)cc2F)c2ccc(S(=O)(=O)C3CC3)cc2)ccc1C1CC1` (centres unmarked) [Example 7-3, 3-Cyclopropyl-6-[[4-(cyclopropylsulfonyl)phenyl](2,4-difluorophenoxy)methyl]pyridin-2(1H)-one], 10 to 500 nM. With `Cc1ccc(/C(=C\[C@H]2CCC(=O)N2)c2ccc(C3CC3)c(=O)[nH]2)cc1F` [Example 4-114, 3-Cyclopropyl-6-{(E)-1-(3-fluoro-4-methylphenyl)-2-[(2R)-5-oxopyrrolidin-2-yl]ethenyl}pyridin-2(1H)-one] the figure was 10 to 500 nM; with `CC(C)(C)c1ccc(/C(=C\Cn2ccccc2=O)c2ccc(Cl)c(=O)[nH]2)cc1` [Example 6-11, 6-[(1E)-1-(4-tert-Butylphenyl)-3-(2-oxopyridin-1(2H)-yl)prop-1-en-1-yl]-3-chloropyridin-2(1H)-one], 500 to 3000 nM. Turning to `Cc1ccc(C(C[C@H]2CCC(=O)N2)c2ccc(C3CC3)c(=O)[nH]2)cc1Cl` (single isomer, unassigned) [Example 4-215], the EC50 lay within 10 to 500 nM. The compound `COc1ccc(/C(=C\CC2CCCO2)c2ccc(C3CC3)c(=O)[nH]2)cc1Cl` (centres unmarked) [Example 1-50, 6-[(1E)-1-(3-Chloro-4-methoxyphenyl)-3-(tetrahydrofuran-2-yl)prop-1-en-1-yl]-3-cyclopropylpyridin-2(1H)-one] registered an EC50 of 500 to 3000 nM. The result for `O=C1CC[C@H](CC(c2ccc(S(=O)(=O)C3CC3)c(Cl)c2)c2ccc(Cl)c(=O)[nH]2)N1` (single isomer, unassigned) [Example 4-304] reads 10 to 500 nM. Compound `O=C1CC[C@H](CC(c2ccc(C(F)F)c(Cl)c2)c2ccc(C3CC3)c(=O)[nH]2)N1` (single isomer, unassigned) [Example 4-225] came in with an EC50 of 10 to 500 nM.

For the origin of these results see patent US8822503B2, “2-pyridone compounds” (Taisho Pharmaceutical Co., Ltd, priority 2009, dated 2014).
